This assay has as its target T1, 5-HT1A recognition sites (Rattus norvegicus, UniProt P19327).
T1 construct: Tissues from 4-8 rats are pooled and homogenized in 70 vol Tris-HCl buffer; from tissue; host or cells: Sprague-Dawley rat frontal cortex membrane homogenate
T1 sequence (P19327 1-422): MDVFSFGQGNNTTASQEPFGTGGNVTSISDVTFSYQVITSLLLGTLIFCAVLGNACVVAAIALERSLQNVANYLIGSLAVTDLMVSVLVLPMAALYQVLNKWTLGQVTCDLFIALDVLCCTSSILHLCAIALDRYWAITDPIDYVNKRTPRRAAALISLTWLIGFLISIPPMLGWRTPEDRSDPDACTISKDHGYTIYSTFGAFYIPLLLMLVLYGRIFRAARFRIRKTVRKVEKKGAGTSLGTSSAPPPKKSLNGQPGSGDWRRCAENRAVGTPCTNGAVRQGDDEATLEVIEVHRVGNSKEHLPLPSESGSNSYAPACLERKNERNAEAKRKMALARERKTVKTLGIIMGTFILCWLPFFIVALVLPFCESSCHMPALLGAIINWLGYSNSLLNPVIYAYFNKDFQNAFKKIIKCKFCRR
The assay can be described thus: In vitro 5-HT1A radioligand binding ([³H]-8-OH-DPAT). Details: species or system Sprague-Dawley rat. To be noted: rat frontal cortex homogenate; radioligand [³H]-8-OH-DPAT; 37°C for 15 min; results expressed as pIC₅₀; read-out: 5-HT1A Binding Affinity Rat Brain cortex (converted). The method, then: Radioligand binding studies of the 5-HT1A recognition sites are conducted in the following manner.
Radioactivity is measured following extraction into Aquasol-Z (NEN) at an efficiency of 45-50%.

Each structure is given as a SMILES string.

In the case of `CC1(C)CC(=O)OC(=NCCCCN2CCN(c3ncccn3)CC2)N1` [Compound B, 2-[4-[4-(2-pyrimidinyl)-1-piperazinyl]butylimino]-tetrahydro-4,4-dimethyl-6H-1,3-oxazine-6-one], the IC50 was 479 nM.

Values taken from EP0238905B1, “4-(2-pyrimidinyl)-1-piperazinyl heterocyclic carbonyl derivatives” (MERRELL DOW PHARMACEUTICALS INC., priority 1986, dated 1987).
